According to patent US20100272680A1, “Piperidinyl Cyclic Amido Antiviral Agents” (priority 2009, published 2010):

What was measured:
Type in all cases: cell-based
[1] = tested on: HCV replicon; test: Replicon assay (Table 2, genotype not stated); conditions: Hepatitis C virus, Table 2, first measurement, luciferase activity after 48 hours
Procedure: Compounds were assayed for activity against HCV using the genotype 1a and 1b subgenomic replicon model systems. Stable cell lines bearing the genotype 1a and 1b replicons were used for screening of compounds. Both replicons are bicistonic and contain the firefly luciferase gene. The ET cell line is stably transfected with RNA transcripts harboring a I389luc-ubi-neo/NS3-3′/ET replicon with firefly luciferase-ubiquitin-neomycin phosphotransferase fusion protein and EMCV-IRES driven NS3-5B polyprotein containing the cell culture adaptive mutations (E1202G; T12801; K1846T) (Krieger at al, 2001 and unpublished). The genotype 1a replicon is a stable cell line licensed from Apath LLC, modified to contain the firefly luciferase gene. The cells were grown in DMEM, supplemented with 10% fetal calf serum, 2 mM Glutamine, Penicillin (100 IU/mL)/Streptomycin (100 μg/mL), 1× nonessential amino acids, and 250-500 μg/mL G418 (“Geneticin”). They were all available through Life Technologies (Bethesda, Md.). The cells were plated at 0.5×10^4 cells/well in 384 well plates containing compounds. The final concentration of compounds ranged between 0.03 μM to 50 μm and the final DMSO concentration of 0.5-1%.
Luciferase activity was measured 48 hours later by adding a Steady glo (Promega, Madison, Wis.). Percent inhibition of replication data was plotted relative to no compound control. Under the same condition, cytotoxicity of the compounds was determined using cell titer glo (Promega, Madison, Wis). IC50s were determined from a 10 point dose response curve using 3-4-fold serial dilution for each compound, which spans a concentration range >1000 fold. BioAssay determines the level of inhibition for each compound by normalizing cross-talk corrected plate values against the negative […] controls to determine Percent Inhibition:
These normalized values are exported to EC50 where they are plotted against the molar compound concentrations using the standard four parameter logistic equation: […]
Some EC50 measurements were repeated a second time and for both 1A and 1B genotypes after those reported in Table 2 for compounds 101-108 and the repeated data was reported in Table 3.

[2] = tested on: HCV Genotype 1B Replicon; test: Replicon assay, genotype 1b subgenomic replicon (ET cell line), luciferase readout; conditions: Hepatitis C virus, 48 h, Table 3; luciferase activity after 48 hours
Procedure, shortened: (§1)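 EC50 values came from four-parameter logistic fits of 10-point dose responses (3–4-fold steps, final 0.03–50 μM, 0.5–1% DMSO), normalized against no-compound and no-cell controls. Firefly luciferase was read 48 h after plating 0.5×10^4 replicon cells/well, 1b ET or 1a Apath-derived line.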

[3] = tested on: HCV Genotype 1A Replicon; test: Replicon assay, genotype 1a subgenomic replicon, luciferase readout; conditions: Hepatitis C virus, 48 h, Table 3; luciferase activity after 48 hours
Procedure, shortened: as §1

Row | SMILES | EC50 [1] [nM] | EC50 [2] [nM] | EC50 [3] [nM]
1 | O=C(c1nc2c(C(F)(F)F)cc(-c3ccoc3)cn2c1Cl)N1CCC(N2CCOC2=O)CC1 [Compound 103, 3-[1-(3-Chloro-6-furan-3-yl-8-trifluoromethyl-imidazo[1,2-a]pyridine-2-carbonyl)-piperidin-4-yl]-oxazolidin-2-one] | 26 | 20 | 10
2 | O=C(c1nc2c(C(F)(F)F)cc(-c3cn[nH]c3)cn2c1Cl)N1CCC(N2CCOC2=O)CC1 [Compound 108, 3-{1-[3-Chloro-6-(1H-pyrazol-4-yl)-8-trifluoromethyl-imidazo [1,2-a]pyridine-2-carbonyl]-piperidin-4-yl}-oxazolidin-2-one] | 213 | 130 | 20
3 | O=C(c1nc2c(C(F)(F)F)cc(-c3ccoc3)cn2c1Cl)N1CCC(N2CCCC2=O)CC1 [Compound 101, 1-[1-(3-Chloro-6-furan-3-yl-8-trifluoromethyl-imidazo[1,2-a]pyridine-2-carbonyl)-piperidin-4-yl]-pyrrolidin-2-one] | 57 | – | –
4 | O=C(c1nc2c(C(F)(F)F)cc(C3=CCCC3)cn2c1Cl)N1CCC(N2CCOC2=O)CC1 [Compound 107, 3-[1-(3-Chloro-6-cyclopent-1-enyl-8-trifluoromethyl-imidazo[1,2-a]pyridine-2-carbonyl)-piperidin-4-yl]-oxazolidin-2-one] | 16 | – | –
5 | O=C(c1nc2c(C(F)(F)F)cc(Br)cn2c1Cl)N1CCC(N2CCOC2=O)CC1 [Compound 105, 3-[1-(6-Bromo-3-chloro-8-trifluoromethyl-imidazo[1,2-a]pyridine-2-carbonyl)-piperidin-4-yl]-oxazolidin-2-one] | 71 | 40 | 30
6 | O=C(c1nc2c(C(F)(F)F)cc(-c3ccccc3)cn2c1Cl)N1CCC(N2CCOC2=O)CC1 [Compound 104, 3-[1-(3-Chloro-6-phenyl-8-trifluoromethyl-imidazo[1,2-a]pyridine-2-carbonyl)-piperidin-4-yl]-oxazolidin-2-one] | 283 | – | –
7 | C=C(C)c1cc(C(F)(F)F)c2nc(C(=O)N3CCC(N4CCOC4=O)CC3)c(Cl)n2c1 [Compound 106, 3-[1-(3-Chloro-6-isopropenyl-8-trifluoromethyl-imidazo[1,2-a]pyridine-2-carbonyl)-piperidin-4-yl]-oxazolidin-2-one] | 5 | 20 | 10
8 | O=C(c1nc2c(C(F)(F)F)cc(-c3cn[nH]c3)cn2c1Cl)N1CCC(N2CCCC2=O)CC1 [Compound 102, 1-{1-[3-Chloro-6-(1H-pyrazol-4-yl)-8-trifluoromethyl-imidazo[1,2-a]pyridine-2-carbonyl]-piperidin-4-yl}-pyrrolidin-2-one] | 683 | – | –
9 | O=C(c1nc2c(C(F)(F)F)cc(-c3ncc[nH]3)cn2c1Cl)N1CCC(N2CCOC2=O)CC1 [Compound 149, 3-(1-{[3-chloro-6-(1H-imidazol-2-yl)-8-(trifluoromethyl)imidazo[1,2-a]pyridin-2-yl]carbonyl}-4-piperidinyl)-1,3-oxazolidin-2-one] | – | 80 | 2250
10 | O=C1CN(C2CCN(C(=O)c3nc4c(C(F)(F)F)cc(-c5ccoc5)cn4c3Cl)CC2)C(=O)N1 [Compound 171, 1-(1-{[3-chloro-6-(3-furanyl)-8-(trifluoromethyl)imidazo[1,2-a]pyridin-2-yl]carbonyl}-4-piperidinyl)-2,4-imidazolidinedione] | – | 580 | 810
11 | C[C@H]1CN(C2CCN(C(=O)c3nc4c(C(F)(F)F)cc(-c5ccoc5)cn4c3Cl)CC2)C(=O)O1 [Compound 184, (5S)-3-(1-{[3-chloro-6-(3-furanyl)-8-(trifluoromethyl)imidazo[1,2-a]pyridin-2-yl]carbonyl}-4-piperidinyl)-5-methyl-1,3-oxazolidin-2-one] | – | 80 | 220
12 | O=C(c1nc2c(C(F)(F)F)cc(-c3ccoc3)cn2c1Cl)N1CCC(N2C(=O)COC2=O)CC1 [Compound 178, 3-(1-{[3-chloro-6-(3-furanyl)-8-(trifluoromethyl)imidazo[1,2-a]pyridin-2-yl]carbonyl}-4-piperidinyl)-1,3-oxazolidine-2,4-dione] | – | 30 | 20
13 | O=C(c1nc2c(C(F)(F)F)cc(-c3ccoc3)cn2c1Cl)N1CCC(n2cn[nH]c2=O)CC1 [Compound 199, 4-(1-{[3-chloro-6-(3-furanyl)-8-(trifluoromethyl)imidazo[1,2-a]pyridin-2-yl]carbonyl}-4-piperidinyl)-2,4-dihydro-3H-1,2,4-triazol-3-one] | – | 5370 | 4790
14 | O=C(c1nc2c(C(F)(F)F)cc(C3CCOC3)cn2c1Cl)N1CCC(N2CCOC2=O)CC1 (centres unmarked) [Compound 137, 3-(1-{[3-chloro-6-(tetrahydro-3-furanyl)-8-(trifluoromethyl)imidazo[1,2-a]pyridin-2-yl]carbonyl}-4-piperidinyl)-1,3-oxazolidin-2-one] | – | 1270 | 310
15 | C[C@@H]1COC(=O)N1C1CCN(C(=O)c2nc3c(C(F)(F)F)cc(-c4ccoc4)cn3c2Cl)CC1 [Compound 182, (4R)-3-(1-{[3-chloro-6-(3-furanyl)-8-(trifluoromethyl)imidazo[1,2-a]pyridin-2-yl]carbonyl}-4-piperidinyl)-4-methyl-1,3-oxazolidin-2-one] | – | 660 | 130
16 | O=C(c1nc2c(C(F)(F)F)cc(C3CCC3)cn2c1Cl)N1CCC(N2CCOC2=O)CC1 [Compound 128, 3-(1-{[3-chloro-6-cyclobutyl-8-(trifluoromethyl)imidazo[1,2-a]pyridin-2-yl]carbonyl}-4-piperidinyl)-1,3-oxazolidin-2-one] | – | 30 | 10
17 | O=C(c1nc2c(C(F)(F)F)cc(-c3cn[nH]c3)cn2c1Cl)N1CCC(N2C(=O)CCC2=O)CC1 [Compound 167, 1-(1-{[3-chloro-6-(1H-pyrazol-4-yl)-8-(trifluoromethyl)imidazo[1,2-a]pyridin-2-yl]carbonyl}-4-piperidinyl)-2,5-pyrrolidinedione] | – | 520 | 630
18 | Nc1cc(C(F)(F)F)c2nc(C(=O)N3CCC(N4CCOC4=O)CC3)c(Cl)n2c1 [Compound 187, 3-(1-{[6-amino-3-chloro-8-(trifluoromethyl)imidazo[1,2-a]pyridin-2-yl]carbonyl}-4-piperidinyl)-1,3-oxazolidin-2-one] | – | 1620 | 4680
19 | O=C(c1nc2c(C(F)(F)F)cc(OC(F)F)cn2c1Cl)N1CCC(N2C(=O)COC2=O)CC1 [Compound 145, 3-(1-{[3-chloro-6-[(difluoromethyl)oxy]-8-(trifluoromethyl)imidazo[1,2-a]pyridin-2-yl]carbonyl}-4-piperidinyl)-1,3-oxazolidine-2,4-dione] | – | 50 | 50
